Test: density at 20° C.
Type: physicochemical
Settings: temperature of 20° C.
Protocol: whilst the dye is defined by the formula (V) and is present in a weight ratio of 0.008% to the solvent. In particular, with the solvent consisting of perfluorooctane (VI), the solution has an absorbance equal to 1,403 at a wavelength of 580 nm. Said solution also has a density of 1,756 kg/l at a temperature of 20° C. (substantially equal to that of perfluorooctane alone which, at 20° C., is equal to 1,755).

FC(F)(F)C(F)(F)C(F)(F)C(F)(F)C(F)(F)C(F)(F)C(F)(F)C(F)(F)F [perfluorooctane]
density: 1,755 kg/l

Source: US20150050219A1, “COLOURED SOLUTION IN PARTICULAR FOR USE IN SURGICAL METHODS FOR THE TREATMENT OF THE BODIES OF HUMANS OR ANIMALS” (BBS S.r.l., priority 2012, published 2015)
